Assay results as given in patent US8497240B2 (priority 2006, dated 2013).
“And” between values parts separate entries of the source, which are not always exact repeats. Equal entries are not always repeated. Where two headings read alike, the source gives them in different places.

Tests used:
human GIP receptor = target: T1, human GIP receptor (Homo sapiens, UniProt P48546); experiment: biochemical; format: binding
T1 construct: expressed in transfected cells; host or cells: HEK293 (HEK-GIPR), membranes
T1 sequence (P48546 22-466): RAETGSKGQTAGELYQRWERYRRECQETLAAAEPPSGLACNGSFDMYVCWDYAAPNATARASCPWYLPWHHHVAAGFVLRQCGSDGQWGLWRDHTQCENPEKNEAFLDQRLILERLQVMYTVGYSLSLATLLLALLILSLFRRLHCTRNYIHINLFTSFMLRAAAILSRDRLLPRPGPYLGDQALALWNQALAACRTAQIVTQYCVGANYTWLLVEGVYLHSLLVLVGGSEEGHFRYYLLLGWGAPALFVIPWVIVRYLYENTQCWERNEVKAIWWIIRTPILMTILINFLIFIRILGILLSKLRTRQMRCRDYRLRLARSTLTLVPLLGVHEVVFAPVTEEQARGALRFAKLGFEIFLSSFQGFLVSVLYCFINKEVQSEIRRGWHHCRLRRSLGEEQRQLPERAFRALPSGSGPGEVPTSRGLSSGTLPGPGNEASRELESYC

[1] = format: in vivo, NIH/Swiss mice; conditions: 30 nmol/kg
Description: In FIG. 3A, bars represent mean±sd, n=6-10. […] Gavage (1.5 g/kg) was given at t=0, Sample was taken at t=30 min. […] In FIG. 3B, points represent mean±sem, n=8-15.
Peptide was injected IP at t=−5 minutes into 4-hour fasted NIH/Swiss female mice. […] In FIG. 17 points represent mean+/−sem. […] Samples were taken at t=60, t=120 and t=180.

[2] = IVGTT duration of action assay (single SC injection before glucose); format: in vivo, rat; conditions: compared with 0601GIP3794 (794), dosed at −120 min
Description: To determine a duration of action using the IVGTT assay, the sample was injected SC as a single injection at one time point indicated (e.g., t=−240, −120, −60 or −30) prior to administration of glucose. IV glucose was given at t=0.

[3] = read-out: (% Inh 10 nm, GIP-LF Assay)
[4] = read-out: GIP RBA (% Inh 10 nM)

Structure (SMILES)	inhibition at 0.01 µM (human GIP receptor; [3]) [%]	inhibition at 0.01 µM (human GIP receptor; [4]) [%]	OGTT/GL (%) [1]	Duration In The Rat IVGTT Assay [2]
CC[C@H](C)[C@H](NC(=O)[C@H](CCCCN)NC(=O)[C@H](CC(=O)O)NC(=O)[C@H](CC(C)C)NC(=O)[C@H](C)NC(=O)[C@@H](NC(=O)[C@H](CO)NC(=O)[C@H](Cc1ccc(O)cc1)NC(=O)[C@H](CC(=O)O)NC(=O)[C@H](CO)NC(=O)[C@@H](NC(=O)[C@H](Cc1ccccc1)NC(=O)[C@@H](NC(=O)CNC(=O)[C@H](CCC(=O)O)NC(=O)[C@@H](C)NC(=O)[C@H](Cc1ccc(O)cc1)NC(=O)[C@@H](N)CC(C)C)[C@@H](C)O)[C@@H](C)CC)[C@@H](C)CC)C(=O)N[C@@H](C)C(=O)N[C@@H](CCC(N)=O)C(=O)N[C@@H](CCC(N)=O)C(=O)N[C@@H](CCC(=O)O)C(=O)N[C@@H](Cc1ccccc1)C(=O)N[C@H](C(=O)N[C@@H](CC(N)=O)C(=O)N[C@@H](Cc1c[nH]c2ccccc12)C(=O)N[C@@H](CC(C)C)C(=O)N[C@@H](CC(C)C)C(=O)N[C@@H](C)C(=O)N[C@@H](CCC(N)=O)C(=O)N[C@@H](CCCCN)C(=O)N1CCC[C@H]1C(=O)N[C@@H](CCCCN)C(=O)N[C@@H](CCCCN)C(=O)N[C@H](C(=O)N[C@@H](CCCNC(=N)N)C(=O)N[C@@H](Cc1ccc(O)cc1)C(=O)N[C@@H](CO)C(N)=O)[C@@H](C)CC)C(C)C [0601GIP4802]	87.3	87.3	−28, %	<794 @ −120 min
CC[C@H](C)[C@H](NC(=O)[C@H](CO)NC(=O)[C@H](Cc1ccc(O)cc1)NC(=O)[C@H](CC(=O)O)NC(=O)[C@H](CO)NC(=O)[C@@H](NC(=O)[C@H](Cc1ccccc1)NC(=O)[C@@H](NC(=O)CNC(=O)[C@H](CCC(=O)O)NC(=O)[C@@H](C)NC(=O)[C@@H](N)Cc1ccc(O)cc1)[C@@H](C)O)[C@@H](C)CC)C(=O)N[C@@H](C)C(=O)N[C@@H](CC(C)C)C(=O)N[C@@H](CC(=O)O)C(=O)N[C@@H](CCCCN)C(=O)N[C@H](C(=O)N[C@@H](Cc1c[nH]cn1)C(=O)N[C@@H](CCC(N)=O)C(=O)N[C@@H](CCC(N)=O)C(=O)N[C@@H](CC(=O)O)C(=O)N[C@@H](Cc1ccccc1)C(=O)N[C@H](C(=O)N[C@@H](CC(N)=O)C(=O)N[C@@H](Cc1c[nH]c2ccccc12)C(=O)N[C@@H](CC(C)C)C(=O)N[C@@H](CC(C)C)C(=O)N[C@@H](C)C(=O)N[C@@H](CCC(N)=O)C(=O)N[C@@H](CCCCN)C(=O)N1CCC[C@H]1C(=O)N[C@@H](CCCCN)C(=O)N[C@@H](CCCCN)C(=O)N[C@H](C(=O)N[C@@H](CCCNC(=N)N)C(=O)N[C@@H](Cc1ccc(O)cc1)C(=O)N[C@@H](CO)C(N)=O)[C@@H](C)CC)C(C)C)[C@@H](C)CC [0601GIP4807]	96.1	96.1	−27, % and −27, 30%	<794 @ −120 min
CC[C@H](C)[C@H](NC(=O)[C@H](CO)NC(=O)[C@H](Cc1ccc(O)cc1)NC(=O)[C@H](CC(=O)O)NC(=O)[C@H](CO)NC(=O)[C@@H](NC(=O)[C@H](Cc1ccccc1)NC(=O)[C@@H](NC(=O)CNC(=O)[C@H](CCC(=O)O)NC(=O)[C@@H](C)NC(=O)[C@@H](N)Cc1ccc(O)cc1)[C@@H](C)O)[C@@H](C)CC)C(=O)N[C@@H](C)C(=O)N[C@@H](CCSC)C(=O)N[C@@H](CC(=O)O)C(=O)N[C@@H](CCCCN)C(=O)N[C@H](C(=O)N[C@@H](Cc1c[nH]cn1)C(=O)N[C@@H](CCC(N)=O)C(=O)N[C@@H](CCC(N)=O)C(=O)N[C@@H](CC(=O)O)C(=O)N[C@@H](Cc1ccccc1)C(=O)N[C@H](C(=O)N[C@@H](CC(N)=O)C(=O)N[C@@H](Cc1c[nH]c2ccccc12)C(=O)N[C@@H](CC(C)C)C(=O)N[C@@H](CC(C)C)C(=O)N[C@@H](C)C(=O)N[C@@H](CCC(N)=O)C(=O)N[C@@H](CCCCN)C(=O)N1CCC[C@H]1C(=O)N[C@@H](C)C(=O)N[C@@H](CCCCN)C(=O)N[C@H](C(=O)N[C@@H](CCCNC(=N)N)C(=O)N[C@@H](Cc1ccc(O)cc1)C(=O)N[C@@H](CO)C(N)=O)[C@@H](C)CC)C(C)C)[C@@H](C)CC [Compound 0601GIP4815]	89	89	−23, %	<794@ −120 min
CC[C@H](C)[C@H](NC(=O)[C@H](CO)NC(=O)[C@H](Cc1ccc(O)cc1)NC(=O)[C@H](CC(=O)O)NC(=O)[C@H](CO)NC(=O)[C@@H](NC(=O)[C@H](Cc1ccccc1)NC(=O)[C@@H](NC(=O)CNC(=O)[C@H](CCC(=O)O)NC(=O)[C@@H](C)NC(=O)[C@@H](N)Cc1ccc(O)cc1)[C@@H](C)O)[C@@H](C)CC)C(=O)N[C@@H](C)C(=O)N[C@@H](CCSC)C(=O)N[C@@H](CC(=O)O)C(=O)N[C@@H](CCCCN)C(=O)N[C@H](C(=O)N[C@@H](Cc1c[nH]cn1)C(=O)N[C@@H](CCC(N)=O)C(=O)N[C@@H](CCC(N)=O)C(=O)N[C@@H](CC(=O)O)C(=O)N[C@@H](Cc1ccccc1)C(=O)N[C@H](C(=O)N[C@@H](CC(N)=O)C(=O)N[C@@H](Cc1c[nH]c2ccccc12)C(=O)N[C@@H](CC(C)C)C(=O)N[C@@H](CC(C)C)C(=O)N[C@@H](C)C(=O)N[C@@H](CCC(N)=O)C(=O)N[C@@H](CCCCN)C(=O)N1CCC[C@H]1C(=O)N[C@@H](CCCCN)C(=O)N[C@@H](CCCCN)C(=O)N[C@@H](CC(C)C)C(=O)N[C@@H](CCCCN)C(=O)N1CCC[C@H]1C(=O)N[C@@H](CO)C(N)=O)C(C)C)[C@@H](C)CC [Compound 0601GIP4822]	95.4	95.4	−23, %	<794@ −120 min
CC[C@H](C)[C@H](NC(=O)[C@H](CO)NC(=O)[C@H](Cc1ccc(O)cc1)NC(=O)[C@H](CC(=O)O)NC(=O)[C@H](CO)NC(=O)[C@@H](NC(=O)[C@H](Cc1ccccc1)NC(=O)[C@@H](NC(=O)CNC(=O)[C@H](CCC(=O)O)NC(=O)[C@@H](C)NC(=O)[C@@H](N)Cc1ccc(O)cc1)[C@@H](C)O)[C@@H](C)CC)C(=O)N[C@@H](C)C(=O)N[C@@H](CCSC)C(=O)N[C@@H](CC(=O)O)C(=O)N[C@@H](CCCCN)C(=O)N[C@H](C(=O)N[C@@H](Cc1c[nH]cn1)C(=O)N[C@@H](CCC(N)=O)C(=O)N[C@@H](CCC(N)=O)C(=O)N[C@@H](CC(=O)O)C(=O)N[C@@H](Cc1ccccc1)C(=O)N[C@H](C(=O)N[C@@H](CC(N)=O)C(=O)N[C@@H](Cc1c[nH]c2ccccc12)C(=O)N[C@@H](CC(C)C)C(=O)N[C@@H](CC(C)C)C(=O)N[C@@H](C)C(=O)N[C@@H](CCC(N)=O)C(=O)N[C@@H](CCCCN)C(=O)N1CCC[C@H]1C(=O)N[C@@H](CCC(N)=O)C(=O)N[C@@H](CCCCN)C(=O)N[C@H](C(=O)N[C@@H](CCCNC(=N)N)C(=O)N[C@@H](Cc1ccc(O)cc1)C(=O)N[C@@H](CO)C(N)=O)[C@@H](C)CC)C(C)C)[C@@H](C)CC [Compound 0601GIP4853]	91	–	−25, %	<794@ −120 min
